# Several values for one entry are separate records, joined by “and”; a condition that tells them apart may be missing. Equal values may be shown once. Toxic doses and inconclusive results are not listed.
# Tested on: L1210 leukemia ip in BDF1 mice, survival T/C
# Experiment: NCI In Vivo Anticancer Drug Screen. Data for tumor model L1210 Leukemia (intraperitoneal) in B6D2F1 (BDF1) mice
# Conditions: endpoint: mean survival time, higher = longer survival
# Summary of the method: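 Transplanted-tumor mice were given test agent; controls received vehicle only. Survival readings from the two groups were divided (treated over control).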
# [1] = dose: 100.0 mg/kg/injection, schedule: Q01DX009 (ip), vehicle: saline
# [2] = dose: 200.0 mg/kg/injection, schedule: Q01DX009 (ip), vehicle: saline
# [3] = dose: 400.0 mg/kg/injection, schedule: Q01DX009 (ip), vehicle: saline
# [4] = dose: 100.0 mg/kg/injection, schedule: Q01DX001 (ip), vehicle: saline
# [5] = dose: 100.0 mg/kg/injection, schedule: Q04DX003 (ip), vehicle: Klucel (hydroxypropylcellulose) (HPC)
# [6] = dose: 200.0 mg/kg/injection, schedule: Q01DX001 (ip), vehicle: saline
# [7] = dose: 200.0 mg/kg/injection, schedule: Q04DX003 (ip), vehicle: Klucel (hydroxypropylcellulose) (HPC)
# [8] = dose: 400.0 mg/kg/injection, schedule: Q01DX001 (ip), vehicle: saline
# [9] = dose: 400.0 mg/kg/injection, schedule: Q04DX003 (ip), vehicle: Klucel (hydroxypropylcellulose) (HPC)
# [10] = dose: 100.0 mg/kg/injection, schedule: Q04DX003 (ip), vehicle: saline with Tween-80
# [11] = dose: 200.0 mg/kg/injection, schedule: Q04DX003 (ip), vehicle: saline with Tween-80
# [12] = dose: 50.0 mg/kg/injection, schedule: Q01DX001 (ip), vehicle: saline
# [13] = dose: 100.0 mg/kg/injection, schedule: Q04DX003 (ip), vehicle: saline
# [14] = dose: 200.0 mg/kg/injection, schedule: Q04DX003 (ip), vehicle: saline
smiles,measurement,setting,value
CC(O)C(C)(C)CO (stereo unspecified),T/C,[1],94 % of control
same,T/C,[2],95 % of control
same,T/C,[3],90 % of control
CN=C(NC)SC,T/C,[4],103 % of control
same,T/C,[5],100 % of control
same,T/C,[6],97 % of control
same,T/C,[7],93 % of control
same,T/C,[8],96 % of control
same,T/C,[9],100 % of control
CC(/C=C\c1ccc([N+](=O)[O-])cc1)=N\NC(=O)c1ccncc1,T/C,[10],98 % of control
same,T/C,[11],98 % of control
same,T/C,"dose: 400.0 mg/kg/injection, schedule: Q04DX003 (ip), vehicle: saline with Tween-80",96 % of control
CC1CN1P(=O)(Oc1cccc2ccccc12)N1CC1C (stereo unspecified),T/C,[12],96 % of control
same,T/C,[4],100 % of control
same,T/C,"dose: 178.0 mg/kg/injection, schedule: Q01DX001 (ip), vehicle: saline",101 % of control and 109 % of control
same,T/C,[6],113 % of control
same,T/C,"dose: 267.0 mg/kg/injection, schedule: Q01DX001 (ip), vehicle: saline",101 % of control and 103 % of control
same,T/C,[8],101 % of control and 104 % of control
same,T/C,"dose: 600.0 mg/kg/injection, schedule: Q01DX001 (ip), vehicle: saline",110 % of control and 116 % of control
C[n+]1cccc(C(=O)N/N=C/CCc2ccccc2)c1,T/C,"dose: 25.0 mg/kg/injection, schedule: Q04DX003 (ip), vehicle: saline with Tween-80",95 % of control
same,T/C,"dose: 50.0 mg/kg/injection, schedule: Q01DX001 (ip), vehicle: saline with Tween-80",101 % of control
same,T/C,"dose: 50.0 mg/kg/injection, schedule: Q01DX009 (ip), vehicle: saline with Tween-80",120 % of control
same,T/C,"dose: 50.0 mg/kg/injection, schedule: Q04DX003 (ip), vehicle: saline with Tween-80",90 % of control
same,T/C,"dose: 100.0 mg/kg/injection, schedule: Q01DX001 (ip), vehicle: saline with Tween-80",103 % of control
same,T/C,"dose: 100.0 mg/kg/injection, schedule: Q01DX009 (ip), vehicle: saline with Tween-80",106 % of control
same,T/C,[10],92 % of control
same,T/C,"dose: 200.0 mg/kg/injection, schedule: Q01DX001 (ip), vehicle: saline with Tween-80",97 % of control
same,T/C,"dose: 200.0 mg/kg/injection, schedule: Q01DX009 (ip), vehicle: saline with Tween-80",95 % of control
same,T/C,[11],94 % of control
same,T/C,"dose: 400.0 mg/kg/injection, schedule: Q01DX001 (ip), vehicle: saline with Tween-80",101 % of control
COC(=O)c1csc(-c2csc(CCN)n2)n1,T/C,[4],102 % of control
same,T/C,[1],100 % of control
same,T/C,[13],95 % of control
same,T/C,[6],98 % of control
same,T/C,[2],98 % of control
same,T/C,[14],98 % of control
same,T/C,[8],101 % of control
same,T/C,[3],89 % of control
same,T/C,"dose: 400.0 mg/kg/injection, schedule: Q04DX003 (ip), vehicle: saline",103 % of control
CCOC(=O)c1ccc(N=NN(C)C(C)CC)cc1 (stereo unspecified),T/C,"dose: 100.0 mg/kg/injection, schedule: Q01DX001 (ip), vehicle: Klucel (hydroxypropylcellulose) (HPC)",113 % of control
same,T/C,[5],102 % of control
same,T/C,"dose: 200.0 mg/kg/injection, schedule: Q01DX001 (ip), vehicle: Klucel (hydroxypropylcellulose) (HPC)",101 % of control
same,T/C,[7],118 % of control
same,T/C,"dose: 400.0 mg/kg/injection, schedule: Q01DX001 (ip), vehicle: Klucel (hydroxypropylcellulose) (HPC)",124 % of control
same,T/C,"dose: 400.0 mg/kg/injection, schedule: Q01DX009 (ip), vehicle: Klucel (hydroxypropylcellulose) (HPC)",166 % of control
same,T/C,[9],122 % of control
O=C(CCl)OC(=O)C(Cl)(Cl)Cl,T/C,[13],102 % of control
same,T/C,[14],96 % of control
C=CCc1c2c(ccc(=O)c1O)-c1c(cc(OC)c(OC)c1OC)CCC2NC(C)=O (stereo unspecified),T/C,"dose: 100.0 mg/kg/injection, schedule: Q01DX001 (ip), vehicle: carboxymethylcellulose (CMC)",117 % of control
same,T/C,"dose: 177.6 mg/kg/injection, schedule: Q01DX001 (ip), vehicle: carboxymethylcellulose (CMC)",110 % of control and 119 % of control
same,T/C,"dose: 200.0 mg/kg/injection, schedule: Q01DX001 (ip), vehicle: carboxymethylcellulose (CMC)",117 % of control
same,T/C,"dose: 266.8 mg/kg/injection, schedule: Q01DX001 (ip), vehicle: carboxymethylcellulose (CMC)",95 % of control and 118 % of control
COc1cc2ccnc(C=O)c2cc1OC,T/C,[12],96 % of control
same,T/C,[4],95 % of control
same,T/C,[6],101 % of control
CCCCCCCCC(=O)NCCCNC(=O)CCCCCCCC,T/C,"dose: 30.0 mg/kg/injection, schedule: Q01DX001 (ip), vehicle: saline",96 % of control
same,T/C,[4],91 % of control
same,T/C,"dose: 300.0 mg/kg/injection, schedule: Q01DX001 (ip), vehicle: saline",93 % of control
OC[C@@H]1CC[C@H](n2cnc3c(Cl)ncnc32)C1,T/C,[4],103 % of control
same,T/C,[6],101 % of control
same,T/C,[8],101 % of control

# Reference: PubChem BioAssay AID248 (DTP/NCI, 2004)
